In patent US11865098B1, “Methods and compositions for treating excessive sleepiness” (Axsome Malta Ltd., priority 2017, dated 2024):

What was measured:
[1] = system: adult patients with OSA and ES; assay: FOSQ-10, 12-week parallel study in OSA; type: in vivo, human
Procedure: The study was a 12-week, double-blind, placebo-controlled, parallel design study as described in greater detail in Example 1 (Schweitzer et al., Sleep 40(Abstract Supplement):A237. Abstract 0641 (2017)). Patients were randomized (1:1:2:2:2) to APC 37.5, 75, 150, 300 mg, or placebo for 12 weeks, and were stratified by adherence or non-adherence with primary OSA therapy (adherent definition was use for ≥4 hours per night on >70% of nights). Two patient-reported measures were included as secondary efficacy outcomes to evaluate the effects of APC on functional status and work productivity and activity impairment at baseline and weeks 1, 4, 8, and 12. The Functional Outcomes of Sleep questionnaire short version (FOSQ-10) (Chasens et al., Sleep 32(7):915 (2009)) evaluated the effects of ES on functioning. The Work Productivity and Activity Impairment questionnaire for Specific Health Problems (WPAI:SHP) (Reilly et al., Pharmacoeconomics 4(5):353 (1993); Reilly, Work Productivity and Activity Impairment Questionnaire: Specific Health Problem V2.0 (WPAI: SHP). www.reillyassociates.net/WPAI_SHP) evaluated work productivity impairment among employed patients and overall activity impairment outside of work among all patients for the past 7 days. Four outcomes are available from the WPAI:SHP: Absenteeism (percent work time missed due to health); Presenteeism (percent impairment while working due to health); Percent overall work impairment (calculated from absenteeism and presenteeism); and Percent activity impairment due to health. The FOSQ-10 was evaluated as change over time compared with placebo (least squares (LS) mean); the 4 WPAI outcomes were evaluated at week 12 compared to placebo. Efficacy analyses were based on the modified intent-to-treat population (mITT) and there was no multiplicity adjustment for the FOSQ-10 or WPAI:SHP. Safety and tolerability were assessed based on treatment-emergent adverse events (TEAEs), vital signs, electrocardiogram test, physical exams, Columbia-Suicide Severity Rating Scale, and laboratory tests in the safety population.

[2] = system: patients with narcolepsy type 1 or type 2; assay: PGI-C, 12-week phase 3 study in narcolepsy; type: in vivo, human
Procedure: The study was a 12-week, double-blind, randomized, placebo-controlled, parallel-group study. Patients were randomized (1:1:1:1) to receive placebo or APC 75, 150, or 300 mg; randomization was stratified by the presence or absence of cataplexy.
Co-primary endpoints were change from baseline to week 12 in MWT mean sleep latency and ESS score. The key secondary endpoint was the percentage of patients who reported improvement on the Patient Global Impression of Change (PGI-C) (Guy, ECDEU assessment manual for psychopharmacology, revised. US Department of Health, Education, and Welfare publication (ADM 76-338). Rockville, MD: National Institute of Mental Health; 1976) at week 12. Other secondary and exploratory endpoints included changes on function and quality-of-life and changes in the number of cataplexy attacks per week. Safety evaluation included adverse events, laboratory tests, and vital signs.
Efficacy analyses were based on the modified intent-to-treat population (mITT), defined as all patients who were randomized, received at least 1 dose of study drug, and had baseline and at least 1 post-baseline evaluation of both MWT and ESS. MWT and ESS were analyzed using a mixed-effect repeated measures (MMRM) model. PGI-C was analyzed using a chi-square test. […]

## NC(=O)OC[C@H](N)Cc1ccccc1 [JZP-110, (R)-2-amino-3-phenylpropyl carbamate]
[1]; 37.5 to 300 mg, mITT
  FOSQ-10 scores at week 12: dose dependently increased FOSQ-10 scores
[1]; 150 and 300 mg doses
  FOSQ-10, time at which improvements were observed: as early as week 1
  FOSQ-10 scores at week 12, effect relative to placebo: statistically significant effects
[2]; all doses (nominal P-value at 75 mg), week 12, mITT
  Percentage of patients who reported improvement in overall condition (PGI-C) relative to placebo: significantly increased the percentage of patients who reported improvement
[2]; all doses, as early as week 1
  PGI-C improvement, effect at week 1: Statistically significant effects
